Measured values reported in patent US20230113037A1 (Bayer Aktiengesellschaft, priority 2019, published 2023).
Several values for one entry are separate records, joined by “and”; a condition that tells them apart may be missing. Equal entries are not always repeated. Where two headings read alike, the source gives them in different places.

Columns and labels:
AHR [1] = target: T1, AHR (Mus musculus, UniProt P30561); experiment: In vitro assay 3: antagonism in mouse cell line (AHR transactivation, firefly luciferase reporter, kynurenic acid prestimulated); type: cell-based
T1 sequence (P30561 1-848 P471L/N533S/M589L): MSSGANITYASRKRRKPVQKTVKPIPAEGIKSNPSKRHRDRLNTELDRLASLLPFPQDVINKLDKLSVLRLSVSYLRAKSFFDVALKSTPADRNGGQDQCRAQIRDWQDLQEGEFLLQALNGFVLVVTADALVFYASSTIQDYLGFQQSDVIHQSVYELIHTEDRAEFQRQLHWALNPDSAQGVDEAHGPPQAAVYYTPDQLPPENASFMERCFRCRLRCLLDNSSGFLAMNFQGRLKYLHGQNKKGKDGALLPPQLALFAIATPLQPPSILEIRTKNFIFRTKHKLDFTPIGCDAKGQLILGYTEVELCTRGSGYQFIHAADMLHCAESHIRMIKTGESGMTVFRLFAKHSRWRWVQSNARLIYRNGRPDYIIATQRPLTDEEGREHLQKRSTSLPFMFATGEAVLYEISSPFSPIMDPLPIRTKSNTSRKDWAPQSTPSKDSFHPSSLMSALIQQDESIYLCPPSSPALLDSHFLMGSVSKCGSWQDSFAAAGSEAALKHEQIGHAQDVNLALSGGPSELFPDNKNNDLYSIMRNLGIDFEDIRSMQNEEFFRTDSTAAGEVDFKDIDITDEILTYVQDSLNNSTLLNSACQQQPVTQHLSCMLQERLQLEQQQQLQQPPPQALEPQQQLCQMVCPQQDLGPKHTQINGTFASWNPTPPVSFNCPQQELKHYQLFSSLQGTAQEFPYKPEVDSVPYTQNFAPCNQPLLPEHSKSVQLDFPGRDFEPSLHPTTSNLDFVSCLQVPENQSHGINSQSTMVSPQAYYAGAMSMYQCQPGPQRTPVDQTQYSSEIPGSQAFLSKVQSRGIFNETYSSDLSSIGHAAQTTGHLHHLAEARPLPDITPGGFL
Procedure, shortened: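 Cells were first stimulated with kynurenic acid, then exposed to test compound, after which firefly luciferase from a DRE-containing AHR reporter was read out. Signal was scaled between positive and negative controls. Cells not given kynurenic acid provided the inhibition reference.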

AHR [2] = target: T2, AHR (Homo sapiens, UniProt P35869); experiment: In vitro assay 1: antagonism in human cell line (AHR transactivation, firefly luciferase reporter, kynurenic acid prestimulated); type: cell-based; conditions: AHR Antagonism Human IC50 [M]
T2 construct: U87 MG glioblastoma cells (ATCC #HTB-14) endogenously expressing AHR; endogenous in cells; host or cells: U87 MG glioblastoma cells (ATCC #HTB-14)
T2 sequence (P35869 11-848): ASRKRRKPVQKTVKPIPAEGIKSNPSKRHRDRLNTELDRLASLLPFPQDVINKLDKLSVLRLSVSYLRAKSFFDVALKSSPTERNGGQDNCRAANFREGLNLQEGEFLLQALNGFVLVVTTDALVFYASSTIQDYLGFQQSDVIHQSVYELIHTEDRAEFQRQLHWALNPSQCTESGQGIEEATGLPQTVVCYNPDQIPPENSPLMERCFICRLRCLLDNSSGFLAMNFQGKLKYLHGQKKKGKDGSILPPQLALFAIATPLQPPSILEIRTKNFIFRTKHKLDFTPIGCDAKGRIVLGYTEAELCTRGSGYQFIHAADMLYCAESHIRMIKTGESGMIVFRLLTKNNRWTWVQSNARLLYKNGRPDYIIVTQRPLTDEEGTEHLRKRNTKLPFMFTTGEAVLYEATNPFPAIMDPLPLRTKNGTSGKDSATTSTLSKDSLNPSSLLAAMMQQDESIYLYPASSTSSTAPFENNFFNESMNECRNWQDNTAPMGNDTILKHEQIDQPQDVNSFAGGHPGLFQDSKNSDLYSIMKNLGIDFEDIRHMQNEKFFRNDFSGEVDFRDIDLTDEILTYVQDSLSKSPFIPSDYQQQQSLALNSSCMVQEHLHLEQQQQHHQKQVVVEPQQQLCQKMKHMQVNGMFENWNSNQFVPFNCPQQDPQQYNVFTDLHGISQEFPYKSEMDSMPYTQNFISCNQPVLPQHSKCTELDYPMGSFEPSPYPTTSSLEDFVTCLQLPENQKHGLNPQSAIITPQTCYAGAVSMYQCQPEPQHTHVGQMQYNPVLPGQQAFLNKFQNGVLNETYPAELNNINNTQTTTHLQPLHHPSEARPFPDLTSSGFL
Procedure, shortened: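 U87 MG + DRE-firefly/constitutive-Renilla stable reporters; kynurenic acid prestim; dual-luc read; Renilla = tox; normalized vs pos/neg controls (pos: 150 μM KYNA + 5 μM staurosporine).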

[3] = read-out: AHR Antagonism Mouse IC50, mouse Hepa 1c1c7 cells, 200 μM kynurenic acid, 20 hours
[4] = mouse Hepa 1c1c7 cells, 200 μM kynurenic acid, 20 hours, read-out: AHR Antagonism Mouse IC50

IC50 (AHR [2]) | IC50 (AHR [1]; [4]) | Structure (SMILES) | IC50 (AHR [1]; [3])
1.12e-06 M | 269 nM | COc1cccc(-c2nc3c4c(C)cccc4nc(N[C@@H]4CNCCNC4=O)n3n2)c1 [Example 289, (6R)-6-{[2-(3-methoxyphenyl)-10-methyl[1,2,4]triazolo[1,5-c]quinazolin-5-yl]amino}-1,4-diazepan-5-one] | 
2.65e-06 M | 2680 nM | COc1ccc(-c2nc3c4c(OC)cccc4nc(N[C@@H]4CNCCNC4=O)n3n2)cc1 [Example 291, (6R)-6-{[10-methoxy-2-(4-methoxyphenyl)[1,2,4]triazolo[1,5-c]quinazolin-5-yl]amino}-1,4-diazepan-5-one] | 
> 2e-05 M | 2910 nM | O=C1NCCNCC1Nc1nc2cccc(C3CC3)c2c2nc(-c3cccc(F)c3)nn12 (centres unmarked) [Example 295, 6-{[10-cyclopropyl-2-(3-fluorophenyl)[1,2,4]triazolo[1,5-c]quinazolin-5-yl]amino}-1,4-diazepan-5-one] | 
4.52e-07 M | 293 nM | COCc1noc(-c2nc3c4ccccc4nc(N[C@@H]4CCCCNC4=O)n3n2)n1 [Example 303, (3R)-3-({2-[3-(Methoxymethyl)-1,2,4-oxadiazol-5-yl][1,2,4]triazolo[1,5-c]quinazolin-5-yl}amino)azepan-2-one] | 
2.86e-06 M | 1830 nM | CN(C)Cc1noc(-c2nc3c4ccccc4nc(N[C@@H]4CCCCNC4=O)n3n2)n1 [Example 304, (3R)-3-[(2-{3-[(Dimethylamino)methyl]-1,2,4-oxadiazol-5-yl}[1,2,4]triazolo[1,5-c]quinazolin-5-yl)amino]azepan-2-one] | 
1.09e-07 M | 31.2 nM | CS(=N)(=O)c1ccc(-c2nc3c4ccccc4nc(N[C@@H]4CCCCNC4=O)n3n2)cc1 (stereo partly drawn) [Example 306, (3R)-3-({2-[4-(S-methylsulfonimidoyl)phenyl][1,2,4]triazolo[1,5-c]quinazolin-5-yl}amino)azepan-2-one] | 
2.47e-08 M | 1.97 nM | O=C1NCCCC[C@H]1Nc1nc2ccccc2c2nc(-c3cccc(OC(F)(F)F)c3)nn12 [Example 309, (3R)-3-({2-[3-(Trifluoromethoxy)phenyl][1,2,4]triazolo[1,5-c]quinazolin-5-yl}amino)azepan-2-one] | 
9.98e-08 M | 60.7 nM | O=C1NCC[C@H]1Nc1nc2ccccc2c2nc(-c3cccc(OC(F)(F)F)c3)nn12 [Example 310, (3R)-3-({2-[3-(trifluoromethoxy)phenyl][1,2,4]triazolo[1,5-c]quinazolin-5-yl}amino)pyrrolidin-2-one] | 
1.36e-07 M | 111 nM | O=C1NCCC[C@H]1Nc1nc2ccccc2c2nc(-c3cccc(OC(F)(F)F)c3)nn12 [Example 311, (3R)-3-({2-[3-(trifluoromethoxy)phenyl][1,2,4]triazolo[1,5-c]quinazolin-5-yl}amino)piperidin-2-one] | 
7.19e-08 M | 22 nM | CN1CC[C@@H](Nc2nc3ccccc3c3nc(-c4cccc(OC(F)(F)F)c4)nn23)C1=O [Example 312, (3R)-1-methyl-3-({2-[3-(trifluoromethoxy)phenyl][1,2,4]triazolo[1,5-c]quinazolin-5-yl}amino)pyrrolidin-2-one] | 
1.06e-07 M | 99.2 nM | NC(=O)[C@@H](CO)Nc1nc2ccccc2c2nc(-c3cccc(OC(F)(F)F)c3)nn12 [Example 313, N^2-{2-[3-(trifluoromethoxy)phenyl][1,2,4]triazolo[1,5-c]quinazolin-5-yl}-D-serinamide] | 
6.9e-09 M | 0.922 nM | CC[C@@H](Nc1nc2ccccc2c2nc(-c3cccc(OC(F)(F)F)c3)nn12)C(N)=O [Example 314, (2R)-2-({2-[3-(trifluoromethoxy)phenyl][1,2,4]triazolo[1,5-c]quinazolin-5-yl}amino)butanamide] | 
2.06e-07 M | 50.8 nM | O=C1NCCCC[C@@H]1Nc1nc2ccccc2c2nc(-c3cccc(OC(F)(F)F)c3)nn12 [Example 315, (3S)-3-({2-[3-(trifluoromethoxy)phenyl][1,2,4]triazolo[1,5-c]quinazolin-5-yl}amino)azepan-2-one] | 
2.07e-08 M | 3.76 nM | CCC[C@@H](Nc1nc2ccccc2c2nc(-c3cccc(OC(F)(F)F)c3)nn12)C(=O)NC [Example 316, N-methyl-N^2-{2-[3-(trifluoromethoxy)phenyl][1,2,4]triazolo[1,5-c]quinazolin-5-yl}-D-norvalinamide] | 
1.29e-08 M | 0.603 nM | CCNC(=O)C(CC)Nc1nc2ccccc2c2nc(-c3cccc(OC(F)(F)F)c3)nn12 (centres unmarked) [Example 318, N-ethyl-2-({2-[3-(trifluoromethoxy)phenyl][1,2J4]triazolo[1,5-c]quinazolin-5-yl}amino)butanamide] | 
2.06e-08 M | 12.4 nM | CCCNC(=O)[C@@H](C)Nc1nc2ccccc2c2nc(-c3cccc(OC(F)(F)F)c3)nn12 [Example 321, N-propyl-N2-{2-[3-(trifluoromethoxy)phenyl][1,2,4]triazolo[1,5-c]quinazolin-5-yl}-D-alaninamide] | 
1.49e-05 M and 1.56e-05 M and > 2e-05 M | 677 nM | C[C@@H](Nc1nc2ccccc2c2nc(-c3cccc(OC(F)(F)F)c3)nn12)C(=O)NCCN(C)C [Example 325, N-[2-(dimethylamino)ethyl]-N^2-{2-[3-(trifluoromethoxy)phenyl][1,2,4]triazolo[1,5-c]quinazolin-5-yl}-D-alaninamide] | 
5.94e-09 M | 2.89 nM | NC(=O)[C@@H](CO)Nc1nc2ccccc2c2nc(-c3ccc(OC(F)(F)F)cc3)nn12 [Example 329, N^2-{2-[4-(trifluoromethoxy)phenyl][1,2,4]triazolo[1,5-c]quinazolin-5-yl}-D-serinamide] | 
2.74e-08 M | 28 nM | COc1cscc1-c1nc2c3ccccc3nc(N[C@@H]3CCCCNC3=O)n2n1 [Example 333, (3R)-3-{[2-(4-Methoxythiophen-3-yl)[1,2,4]triazolo[1,5-c]quinazolin-5-yl]amino}azepan-2-one] | 
8.51e-06 M | 434 nM | COc1cscc1-c1nc2c3ccccc3nc(N[C@H]3CCCCNC3=O)n2n1 [Example 336, (3S)-3-{[2-(4-methoxythiophen-3-yl)[1,2,4]triazolo[1,5-c]quinazolin-5-yl]amino}azepan-2-one] | 

Structure (SMILES) | IC50 (AHR [2]) | IC50 (AHR [1]; [4]) | IC50 (AHR [1]; [3])
O=C1NCCNC[C@H]1Nc1nc2cccc(C(F)(F)F)c2c2nc(-c3cccc(F)c3)nn12 [Example 288, (6R)-6-{[2-(3-fluorophenyl)-10-(trifluoromethyl)[1,2,4]triazolo[1,5-c]quinazolin-5-yl]amino}-1,4-diazepan-5-one] | > 2e-05 M |  | 887 nM
O=C1NCCCC[C@H]1Nc1nc2ccccc2c2nc(-c3nc(CCO)no3)nn12 [Example 305, (3R)-3-({2-[3-(2-Hydroxyethyl)-1,2,4-oxadiazol-5-yl][1,2,4]triazolo[1,5-c]quinazolin-5-yl}amino)azepan-2-one] | 2.97e-07 M |  | 178 nM
